This note sets out measurements from patent publication US20250154169A1, “COMPOUNDS AND METHODS FOR MODULATING SPLICING” (REMIX THERAPEUTICS INC., priority 2021, published 2025).

Type in all cases: cell-based, human
In one assay the test system is MYB mRNA. Nature of the assay: Splicing RT-qPCR assay, MYB canonical (CJ) and alternative (AJ) junction mRNA. To be noted: Homo sapiens; for AC50: read-out: MYB AJ (AC50, increase in alternative junction mRNA). The essentials:
(§1)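 A673 or K562 cells were treated 24 h at 37 °C with an 11-point 3-fold compound dilution series (top 10 uM, DMSO ≤0.25%). Lysates went to one-step RT-qPCR measuring canonical (CJ) and alternative-exon (AJ) junction transcripts, normalized to GAPDH, GUSB or PPIA.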

A further assay deals with Target C mRNA. Nature of the assay: Splicing RT-qPCR gene panel, Target C canonical junction (CJ) mRNA. The following applies: Homo sapiens, Tables 4A/4B, read-out: Target C (IC50, decrease in CJ mRNA, gene panel). An outline of the steps: (§2)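 A673/K562, 24 h cpd, 11-pt 3-fold from 10 uM, DMSO ≤0.25%. Lysis, direct RT-qPCR of CJ isoform, ≥duplicate. GAPDH/GUSB/PPIA norm, ΔΔCt vs DMSO → RQ → % response.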

Assay [1] deals with HTT mRNA. In words: Splicing RT-qPCR assay, HTT canonical (CJ) and alternative (AJ) junction mRNA. To be noted: Homo sapiens, A673 or K562 cells, 24 hours compound treatment; for IC50: 24 h, read-out: HTT CJ (IC50, decrease in canonical junction mRNA); for AC50: read-out: HTT AJ (AC50, increase in alternative junction mRNA). The essentials:
as §1

The test system of assay [2] is HTT mRNA. Nature of the assay: Splicing RT-qPCR gene panel, HTT canonical junction (CJ) mRNA. The following applies: Homo sapiens, Tables 4A/4B, read-out: HTT (IC50, decrease in CJ mRNA, gene panel). An outline of the steps:
as §2

Another assay has as its system SMN2 mRNA. Nature of the assay: Splicing RT-qPCR gene panel, SMN2 canonical junction (CJ) mRNA. To be noted: Homo sapiens, Tables 4A/4B, read-out: SMN2 (IC50, decrease in CJ mRNA, gene panel). The essentials:
as §2

Setting [3] is: 24 h, A673 or K562 cells, 24 hours compound treatment, RT-qPCR.
Where [4] appears, read: 24 h, A673 or K562 cells, 24 hours compound treatment, RT-qPCR, read-out: MYB CJ (IC50, decrease in canonical junction mRNA).
Where [5] appears, read: Tables 4A/4B, canonical junction qPCR panel, read-out: MYB (IC50, decrease in CJ mRNA, gene panel).

The structures appear in SMILES notation. Where two headings read alike, the source gives them in different places. Some results are limits rather than exact numbers.

For `CCn1cc2c(N3CCNC4(CC4)C3)ccc(C(=O)Nc3cc(F)c4nc(C)cn4c3)c2n1` [Compound 379, 4-{4,7-diazaspiro[2.5]octan-7-yl}-2-ethyl-N-{8-fluoro-2-methylimidazo[1,2-a]pyridin-6-yl}indazole-7-carboxamide], the AC50 was 1 to 10 µM with MYB mRNA (setting [3]) and above 10 µM in the assay with HTT mRNA [1]. Moreover, the IC50 in the assay with MYB mRNA (setting [4]) was 0.1 to 1 µM; in the assay with MYB mRNA (setting [5]), 0.1 to 1 µM; in the assay with Target C mRNA, 1 to 10 µM; in the assay on HTT mRNA [1] it was 1 to 10 µM; with HTT mRNA [2] it was 1 to 10 µM; with SMN2 mRNA, below 0.1 µM.

As for `CCNC1CCN(c2ccc(C(=O)Nc3cc(F)c4nc(C)cn4c3)c3nn(CC)cc23)CC1` [Compound 380, 2-ethyl-4-[4-(ethylamino)piperidin-1-yl]-N-{8-fluoro-2-methylimidazo[1,2-a]pyridin-6-yl}indazole-7-carboxamide], the AC50 in the assay on MYB mRNA (setting [3]) was below 0.1 µM; in the assay on HTT mRNA [1] it was 1 to 10 µM. The IC50 in the assay with MYB mRNA (setting [4]) is below 0.1 µM; in the assay with MYB mRNA (setting [5]), below 0.1 µM; with Target C mRNA, 1 to 10 µM; in the assay with HTT mRNA [1], 1 to 10 µM; in the assay on HTT mRNA [2], 1 to 10 µM; in the assay with SMN2 mRNA, below 0.1 µM.

`Cc1cn2cc(NC(=O)c3ccc(N4CC[C@@H](N)C4)c4cn(C)nc34)cc(F)c2n1` [Compound 381, 4-[(3R)-3-aminopyrrolidin-1-yl]-N-{8-fluoro-2-methylimidazo[1,2-a]pyridin-6-yl}-2-methylindazole-7-carboxamide]: the AC50 in the assay with MYB mRNA (setting [3]) was below 0.1 µM; in the assay on HTT mRNA [1], above 10 µM. For the same compound, the IC50 in the assay on MYB mRNA (setting [4]) was below 0.1 µM; in the assay with MYB mRNA (setting [5]), below 0.1 µM; in the assay on Target C mRNA, above 10 µM; with HTT mRNA [1], above 10 µM; with HTT mRNA [2] it was above 10 µM; in the assay on SMN2 mRNA, below 0.1 µM.

Take `Cc1cn2cc(NC(=O)c3ccc(N4CC[C@H](N)C4)c4cn(C)nc34)cc(F)c2n1` [Compound 382, 4-[(3S)-3-aminopyrrolidin-1-yl]-N-{8-fluoro-2-methylimidazo[1,2-a]pyridin-6-yl}-2-methylindazole-7-carboxamide]: the results for the half-maximal activity concentration (AC50) with MYB mRNA (setting [3]) and in the assay on HTT mRNA [1] were below 0.1 µM and 1 to 10 µM, respectively. Further, the IC50 in the assay with MYB mRNA (setting [4]) was below 0.1 µM; in the assay with MYB mRNA (setting [5]), below 0.1 µM; with Target C mRNA, above 10 µM; with HTT mRNA [1], 1 to 10 µM; in the assay on HTT mRNA [2], 1 to 10 µM; with SMN2 mRNA, below 0.1 µM.

As for `Cc1cn2cc(NC(=O)c3ccc(N4CC5(N)CC4C5)c4cn(C)nc34)cc(F)c2n1` [Compound 383, 4-{4-amino-2-azabicyclo[2.1.1]hexan-2-yl}-N-{8-fluoro-2-methylimidazo[1,2-a]pyridin-6-yl}-2-methylindazole-7-carboxamide], the AC50 in the assay with MYB mRNA (setting [3]) was 0.1 to 1 µM; in the assay with HTT mRNA [1], above 10 µM. The concentration for half-maximal inhibition (IC50) was below 0.1 µM with MYB mRNA (setting [4]); below 0.1 µM with MYB mRNA (setting [5]); above 10 µM in the assay with Target C mRNA; above 10 µM in the assay on HTT mRNA [1]; above 10 µM with HTT mRNA [2]; below 0.1 µM in the assay with SMN2 mRNA.

In the case of `Cc1cn2cc(NC(=O)c3ccc(N4CCNCC4)c4cn(CC5(O)COC5)nc34)cc(F)c2n1` [Compound 384, N-{8-fluoro-2-methylimidazo[1,2-a]pyridin-6-yl}-2-[(3-hydroxyoxetan-3-yl)methyl]-4-(piperazin-1-yl) indazole-7-carboxamide], the AC50 with MYB mRNA (setting [3]) is 1 to 10 µM; in the assay with HTT mRNA [1], above 10 µM. Moreover, the IC50 was above 10 µM in the assay on MYB mRNA (setting [4]); above 10 µM in the assay with MYB mRNA (setting [5]); above 10 µM with Target C mRNA; above 10 µM in the assay on HTT mRNA [1]; above 10 µM in the assay on HTT mRNA [2]; 0.1 to 1 µM with SMN2 mRNA.

Consider `COCCOc1nc2c(C(=O)Nc3cc(F)c4nc(C)cn4c3)ccc(N3CCNCC3)c2o1` [Compound 385, N-{8-fluoro-2-methylimidazo[1,2-a]pyridin-6-yl}-2-(2-methoxyethoxy)-7-(piperazin-1-yl)-1,3-benzoxazole-4-carboxamide], for which the AC50 in the assay with MYB mRNA (setting [3]) and with HTT mRNA [1] was above 10 µM throughout. Further, the half-maximal inhibitory concentration (IC50) with MYB mRNA (setting [4]), in the assay with MYB mRNA (setting [5]), in the assay with Target C mRNA, with HTT mRNA [1], with HTT mRNA [2] and with SMN2 mRNA was above 10 µM each time.

As to `Cn1cc2c(N3CCNCC3)ccc(C(=O)Nc3cc(F)c4nc(CO)cn4c3)c2n1` [Compound 389, N-[8-fluoro-2-(hydroxymethyl)imidazo[1,2-a]pyridin-6-yl]-2-methyl-4-(piperazin-1-yl) indazole-7-carboxamide; trifluoroacetic acid], the AC50 in the assay with MYB mRNA (setting [3]) is 1 to 10 µM; with HTT mRNA [1] it was above 10 µM. For the same compound, the IC50 in the assay with MYB mRNA (setting [4]) was 0.1 to 1 µM; with MYB mRNA (setting [5]), 0.1 to 1 µM; in the assay with Target C mRNA, above 10 µM; in the assay with HTT mRNA [1], above 10 µM; in the assay with HTT mRNA [2], above 10 µM; in the assay with SMN2 mRNA, below 0.1 µM.

Regarding `CCn1cc2c(N3CC[C@@H](N(C)C)C3)ccc(C(=O)Nc3cc(F)c4nc(C)cn4c3)c2n1` [Compound 407, (R)-4-(3-(dimethylamino)pyrrolidin-1-yl)-2-ethyl-N-(8-fluoro-2-methylimidazo[1,2-a]pyridin-6-yl)-2H-indazole-7-carboxamide], the concentration at half-maximal activity (AC50) in the assay on MYB mRNA (setting [3]) is 0.1 to 1 µM; with HTT mRNA [1], above 10 µM. Besides, the half-maximal inhibitory concentration (IC50) in the assay on MYB mRNA (setting [4]) was 0.1 to 1 µM; in the assay on MYB mRNA (setting [5]) it was 0.1 to 1 µM; in the assay with Target C mRNA, above 10 µM; in the assay on HTT mRNA [1], above 10 µM; with HTT mRNA [2], above 10 µM; in the assay on SMN2 mRNA, below 0.1 µM.

For the compound `CCn1cc2c(N3CC[C@H](N(C)C)C3)ccc(C(=O)Nc3cc(F)c4nc(C)cn4c3)c2n1` [Compound 408, (S)-4-(3-(dimethylamino)pyrrolidin-1-yl)-2-ethyl-N-(8-fluoro-2-methylimidazo[1,2-a]pyridin-6-yl)-2H-indazole-7-carboxamide], the AC50 in the assay with MYB mRNA (setting [3]) was 0.1 to 1 µM; in the assay on HTT mRNA [1] it was above 10 µM. For the same compound, the half-inhibitory concentration (IC50) in the assay with MYB mRNA (setting [4]) is 0.1 to 1 µM; in the assay on MYB mRNA (setting [5]), 0.1 to 1 µM; in the assay on Target C mRNA, above 10 µM; with HTT mRNA [1], above 10 µM; in the assay with HTT mRNA [2], above 10 µM; in the assay with SMN2 mRNA it was below 0.1 µM.

With `CCn1cc2c(N3CC[C@@H](NC4CC4)C3)ccc(C(=O)Nc3cc(F)c4nc(C)cn4c3)c2n1` [Compound 409, (R)-4-(3-(cyclopropylamino)pyrrolidin-1-yl)-2-ethyl-N-(8-fluoro-2-methylimidazo[1,2-a]pyridin-6-yl)-2H-indazole-7-carboxamide], the AC50 was below 0.1 µM in the assay on MYB mRNA (setting [3]) and above 10 µM in the assay with HTT mRNA [1]. Also, the 50% inhibitory concentration (IC50) is 0.1 to 1 µM in the assay with MYB mRNA (setting [4]); 0.1 to 1 µM in the assay on MYB mRNA (setting [5]); above 10 µM in the assay on Target C mRNA; above 10 µM with HTT mRNA [1]; above 10 µM in the assay with HTT mRNA [2]; below 0.1 µM in the assay on SMN2 mRNA.

As to `CCn1cc2c(N3CC[C@H](NC4CC4)C3)ccc(C(=O)Nc3cc(F)c4nc(C)cn4c3)c2n1` [Compound 410, (S)-4-(3-(cyclopropylamino)pyrrolidin-1-yl)-2-ethyl-N-(8-fluoro-2-methylimidazo[1,2-a]pyridin-6-yl)-2H-indazole-7-carboxamide], the half-maximal activity concentration (AC50) in the assay on MYB mRNA (setting [3]) is 1 to 10 µM; with HTT mRNA [1], above 10 µM. Besides, the half-inhibitory concentration (IC50) with MYB mRNA (setting [4]) was 0.1 to 1 µM; with MYB mRNA (setting [5]), 0.1 to 1 µM; in the assay with Target C mRNA, above 10 µM; with HTT mRNA [1] it was above 10 µM; with HTT mRNA [2], above 10 µM; in the assay with SMN2 mRNA, below 0.1 µM.

For the compound `Cc1cn2cc(NC(=O)c3ccc(N4CCNCC4)c4cn(CC#N)nc34)cc(F)c2n1` [Compound 413, 2-(cyanomethyl)-N-{8-fluoro-2-methylimidazo[1,2-a]pyridin-6-yl}-4-(piperazin-1-yl) indazole-7-carboxamide], the values for the AC50 with MYB mRNA (setting [3]) and in the assay on HTT mRNA [1] were below 0.1 µM and 1 to 10 µM, respectively. In addition, the IC50 in the assay with MYB mRNA (setting [4]) is below 0.1 µM; in the assay on MYB mRNA (setting [5]), below 0.1 µM; in the assay on Target C mRNA, above 10 µM; in the assay with HTT mRNA [1] it was 1 to 10 µM; in the assay on HTT mRNA [2], 1 to 10 µM; in the assay on SMN2 mRNA, below 0.1 µM.

On to `Cc1cn2cc(NC(=O)c3ccc(N4CCNCC4)c4cn(CC56CC(O)(C5)C6)nc34)cc(F)c2n1` [Compound 414, N-{8-fluoro-2-methylimidazo[1,2-a]pyridin-6-yl}-2-({3-hydroxybicyclo[1.1.1]pentan-1-yl}methyl)-4-(piperazin-1-yl) indazole-7-carboxamide 2,2,2-trifluoroacetate], for which the AC50 with MYB mRNA (setting [3]) is 1 to 10 µM; with HTT mRNA [1], above 10 µM. In addition, the IC50 was 1 to 10 µM in the assay on MYB mRNA (setting [4]); 1 to 10 µM with MYB mRNA (setting [5]); above 10 µM in the assay with Target C mRNA; above 10 µM with HTT mRNA [1]; above 10 µM in the assay on HTT mRNA [2]; 1 to 10 µM in the assay on SMN2 mRNA.
